In patent US4401656A, “N-Substituted dimeric cyclopeptide derivatives” (Ayerst, McKenna & Harrison, Ltd., priority 1980, dated 1983):

How the values were obtained:
Klebsiella pneumoniae = experiment: serial broth dilution, growth inhibition; type: cell-based; details: nutrient broth, incubated at 37° C. for 2 days
Protocol: (§1) Grove and W. A. Randall in "Assay Methods of Antibiotics", Med. Encycl. Inc., New York, 1955. […] 289.
(§2) For example, by employing a test like the serial broth dilution, see Grove and Randall, cited above, in which dilutions of the compounds of this invention in nutrient broth are inoculated with the microorganisms or fungi, described above, incubated at 37° C. for 2 days, respectively, and examined for the presence of growth, it may be shown that the preferred compounds N'N'-dicyclohexyl-α,α'-diisopropyl-2,5,8,11,14,17-hexaoxo-1,4,7,10,13,16-hexaazacyclooctadecane-1,10-diacetamide, isomer L, (Example 1), N'N'-dicyclohexyl-α,α'-diisopropyl-2,5,8,11,14,17-hexaoxo-1,4,7,10,13,16-hexaazacyclooctadecane-1,10-diacetamide, isomer M, (Example 1), and α,α'-diphenyl-N'N'-dicyclohexyl-2,5,8,11,14,17-hexaoxo-1,4,7,10,13,16-hexaazacyclooctadecane-1,10-diacetamide, isomer L, (Example 1) are able to inhibit growth totally in this system of Klebsiella pneumoniae and Serratia marcescens at a concentration of 100 mcg/ml.

Serratia marcescens = experiment: serial broth dilution, growth inhibition; type: cell-based; details: nutrient broth, incubated at 37° C. for 2 days
Protocol: as §1, §2

Row | Structure (SMILES) | concentration able to inhibit growth totally (Klebsiella pneumoniae) [µg/mL] | concentration able to inhibit growth totally (Serratia marcescens) [µg/mL]
1 | CC(C)C(C(=O)NC1CCCCC1)N1CC(=O)NCC(=O)NCC(=O)N(C(C(=O)NC2CCCCC2)C(C)C)CC(=O)NCC(=O)NCC1=O (stereo not drawn) [N,N'-Dicyclohexyl-α,α'-diisopropyl-2,5,8,11,14,17-hexaoxo-1,4,7,10,13,16-hexaazacyclooctadecane-1,10-diacetamide] | 100 | 100
2 | O=C1CNC(=O)CN(C(C(=O)NC2CCCCC2)c2ccccc2)C(=O)CNC(=O)CNC(=O)CN(C(C(=O)NC2CCCCC2)c2ccccc2)C(=O)CN1 (stereo not drawn) [α,α'-diphenyl-N,N'-dicyclohexyl-2,5,8,11,14,17-hexaoxo-1,4,7,10,13,16-hexaazacyclooctadecane-1,10-diacetamide] | 100 | 100
